Tests used:
[1] = tested on: SUDHL4 human GCB-DLBCL tumor cells; test: SUDHL4 xenograft efficacy (tumor volume, TGI, regression); assay type: in vivo, female CB.17 SCID mice; conditions: Study 1
Method: (§1) For the experiments described below, SUDHL4 human GCB-DLBCL tumor cells (10×10^6/mouse) were implanted subcutaneously into female CB.17 SCID mice. Mice were randomized into groups of 5 for efficacy and tolerability assessments based on tumor volume and treated with either vehicles (10% DMSO/25% Kleptose pH=5 (Vehicle 1) and 10% ethanol/30% PEG 400/60% Phosal PG-50 (Vehicle 2)), 130 mg/kg or 45 mg/kg capivasertib, 100 mg/kg venetoclax or the combination of capivasertib and venetoclax. Capivasertib was formulated in 10% DMSO/25% Kleptose pH=5 and venetoclax was formulated in 10% ethanol/30% PEG 400/60% Phosal PG-50. All agents were dosed by oral gavage at a 5 ml/kg dose volume according to schedules described, following tumor cell implantation. Tumor length and width was measured by caliper and tumor volume was calculated using the formula (length×width^2)*π/6.

[2] = tested on: DLBCL cell lines; test: In vitro activity against DLBCL cell lines; assay type: cell-based; conditions: used individually
[3] = Tolerability (body weight change) in SUDHL4 tumor-bearing mice; assay type: in vivo, female CB.17 SCID mice; conditions: Study 1
Method: as §1

[4] = capivasertib 130 mg/kg PO BID 10/14 4 days on/3 days off x 22 days
[5] = venetoclax 100 mg/kg PO QD (continuous) x 22 days

SMILES | Regression [1, 4] | TGI [1, 4] | TGI ([1]; capivasertib 130 mg/kg PO BID 10/14 4 days on/3 days off x 22 days, listed as capivasertib) | Activity against DLBCL cell lines [2] | Max avg body weight loss [3, 4] | Regression [1, 5] | TGI [1, 5] | TGI ([1]; venetoclax 100 mg/kg PO QD (continuous) x 22 days, listed as venetoclax) | Max avg body weight loss [3, 5]
NC1(C(=O)N[C@@H](CCO)c2ccc(Cl)cc2)CCN(c2ncnc3[nH]ccc23)CC1 [Capivasertib, (S)-4-amino-N-(1-(4-chlorophenyl)-3-hydroxypropyl)-1-(7H-pyrrolo[2,3-d]pyrimidin-4-yl)piperidine-4-carboxamide] | 0% | 82% | 82% | have activity | 6% |  |  |  | 
CC1(C)CCC(CN2CCN(c3ccc(C(=O)NS(=O)(=O)c4ccc(NCC5CCOCC5)c([N+](=O)[O-])c4)c(Oc4cnc5[nH]ccc5c4)c3)CC2)=C(c2ccc(Cl)cc2)C1 [Venetoclax, 4-(4-{[2-(4-chlorophenyl)-4,4-dimethylcyclohex-1-en-1-yl]methyl}piperazin-1-yl)-N-({3-nitro-4-[(tetrahydro-2H-pyran-4-ylmethyl)amino]phenyl}sulfonyl)-2-(1H-pyrrolo[2,3-b]pyridin-5-yloxy)benzamide] |  |  |  | have activity |  | 0% | 42% | 42% | 2%
